Source: doi:10.1101/2024.01.14.575554v1 (biorxiv, 2024)

Target: T1, Hsp60β (Sulfolobus acidocaldarius, UniProt Q9V2T4)
T1 sequence (Q9V2T4 1-553): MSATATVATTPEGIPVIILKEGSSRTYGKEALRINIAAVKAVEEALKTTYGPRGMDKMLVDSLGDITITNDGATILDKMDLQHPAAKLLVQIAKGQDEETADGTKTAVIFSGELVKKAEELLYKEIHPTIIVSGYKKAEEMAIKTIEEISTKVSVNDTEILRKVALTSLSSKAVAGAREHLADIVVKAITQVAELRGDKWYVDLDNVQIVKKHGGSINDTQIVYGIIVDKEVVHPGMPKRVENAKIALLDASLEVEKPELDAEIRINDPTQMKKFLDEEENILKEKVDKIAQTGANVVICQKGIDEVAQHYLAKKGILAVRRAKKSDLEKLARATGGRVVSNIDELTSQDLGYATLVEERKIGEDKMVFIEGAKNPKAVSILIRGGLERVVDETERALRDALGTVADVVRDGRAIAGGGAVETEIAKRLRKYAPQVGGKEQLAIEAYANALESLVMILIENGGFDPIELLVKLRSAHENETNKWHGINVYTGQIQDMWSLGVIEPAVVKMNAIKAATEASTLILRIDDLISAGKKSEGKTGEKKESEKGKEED
Experiment: FRET titration, tryptophan donor to MANT acceptor
Assay type: binding

Kd: 77.2 ± 3.8 µM
SMILES: CNc1ccccc1C(=O)O[C@H]1[C@@H](O)[C@H](n2cnc3c(N)ncnc32)O[C@@H]1CO[P@@](=O)(O)O[P@](=O)(O)OP(=O)(O)O [MANT-ATP, 2’/3’-(N-methyl-anthraniloyl)-adenosine-5’-triphosphate]
